# Earlier results as cited in patent US20220184108A1, “PHARMACEUTICAL AND NUTRITIONAL COMPOSITION TO MAXIMIZE NAD ENZYME'S HEALTH BENEFITS” (East West Products Corp., priority 2020, published 2022).
# Assays:
# Slc12a8 NMN transporter = target: T1, Slc12a8 NMN transporter (Mus musculus, UniProt Q8VI23); settings: mice; through the Slc12a8 NMN transporter
# T1 sequence (Q8VI23 1-705): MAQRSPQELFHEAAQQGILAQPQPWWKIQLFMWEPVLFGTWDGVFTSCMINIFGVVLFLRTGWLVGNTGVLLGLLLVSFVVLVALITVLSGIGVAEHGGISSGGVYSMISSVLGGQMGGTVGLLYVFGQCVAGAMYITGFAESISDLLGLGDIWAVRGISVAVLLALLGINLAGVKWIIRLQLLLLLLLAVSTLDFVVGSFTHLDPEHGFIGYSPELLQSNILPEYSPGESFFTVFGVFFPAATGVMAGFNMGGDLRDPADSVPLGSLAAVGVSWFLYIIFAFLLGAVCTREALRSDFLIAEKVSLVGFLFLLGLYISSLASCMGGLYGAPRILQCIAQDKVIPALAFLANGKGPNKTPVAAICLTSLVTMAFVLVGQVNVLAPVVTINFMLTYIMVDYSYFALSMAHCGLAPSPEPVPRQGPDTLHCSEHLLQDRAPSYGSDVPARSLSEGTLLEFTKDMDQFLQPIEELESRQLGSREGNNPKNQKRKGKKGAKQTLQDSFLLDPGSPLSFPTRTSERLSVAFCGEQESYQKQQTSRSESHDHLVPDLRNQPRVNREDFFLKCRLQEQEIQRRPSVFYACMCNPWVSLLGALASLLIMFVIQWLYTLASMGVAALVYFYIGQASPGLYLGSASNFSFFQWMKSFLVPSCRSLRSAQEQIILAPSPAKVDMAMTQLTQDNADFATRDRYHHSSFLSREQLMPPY
# [1] = doses of up to 500 mg; human study, Keio University School of Medicine
smiles,measurement,setting,value
"NC(=O)c1ccc[n+]([C@@H]2O[C@H](COP(=O)([O-])O)[C@@H](O)[C@H]2O)c1 [NMN, Nicotinamide mononucleotide]",time for NMN to enter cells via the small intestines converting to NAD+,Slc12a8 NMN transporter,≤ 10 min
same,safety in men,[1],safe
